This assay concerns the target T1, JAK2 (Homo sapiens, UniProt O60674).
T1 construct: purchased Thermo Fisher Scientific (Life Technologies) SelectScreen
Nature of the assay: SelectScreen Z'LYTE. The class given is biochemical. The procedure, abridged: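 NU5455 was profiled across the SelectScreen Broad panel of kinase activity and binding assays. Z'LYTE reactions such as CSF1R ran at apparent Km ATP, while the Adapta CAMK1 assay used ATP listed as 10. Values are given as percent.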

The results in this text go back to paper PMC6934184, “Selective DNA-PKcs inhibition extends the therapeutic index of localized radiotherapy and chemotherapy” (The Journal of Clinical Investigation, 2019).

T1 sequence (O60674 whole entry): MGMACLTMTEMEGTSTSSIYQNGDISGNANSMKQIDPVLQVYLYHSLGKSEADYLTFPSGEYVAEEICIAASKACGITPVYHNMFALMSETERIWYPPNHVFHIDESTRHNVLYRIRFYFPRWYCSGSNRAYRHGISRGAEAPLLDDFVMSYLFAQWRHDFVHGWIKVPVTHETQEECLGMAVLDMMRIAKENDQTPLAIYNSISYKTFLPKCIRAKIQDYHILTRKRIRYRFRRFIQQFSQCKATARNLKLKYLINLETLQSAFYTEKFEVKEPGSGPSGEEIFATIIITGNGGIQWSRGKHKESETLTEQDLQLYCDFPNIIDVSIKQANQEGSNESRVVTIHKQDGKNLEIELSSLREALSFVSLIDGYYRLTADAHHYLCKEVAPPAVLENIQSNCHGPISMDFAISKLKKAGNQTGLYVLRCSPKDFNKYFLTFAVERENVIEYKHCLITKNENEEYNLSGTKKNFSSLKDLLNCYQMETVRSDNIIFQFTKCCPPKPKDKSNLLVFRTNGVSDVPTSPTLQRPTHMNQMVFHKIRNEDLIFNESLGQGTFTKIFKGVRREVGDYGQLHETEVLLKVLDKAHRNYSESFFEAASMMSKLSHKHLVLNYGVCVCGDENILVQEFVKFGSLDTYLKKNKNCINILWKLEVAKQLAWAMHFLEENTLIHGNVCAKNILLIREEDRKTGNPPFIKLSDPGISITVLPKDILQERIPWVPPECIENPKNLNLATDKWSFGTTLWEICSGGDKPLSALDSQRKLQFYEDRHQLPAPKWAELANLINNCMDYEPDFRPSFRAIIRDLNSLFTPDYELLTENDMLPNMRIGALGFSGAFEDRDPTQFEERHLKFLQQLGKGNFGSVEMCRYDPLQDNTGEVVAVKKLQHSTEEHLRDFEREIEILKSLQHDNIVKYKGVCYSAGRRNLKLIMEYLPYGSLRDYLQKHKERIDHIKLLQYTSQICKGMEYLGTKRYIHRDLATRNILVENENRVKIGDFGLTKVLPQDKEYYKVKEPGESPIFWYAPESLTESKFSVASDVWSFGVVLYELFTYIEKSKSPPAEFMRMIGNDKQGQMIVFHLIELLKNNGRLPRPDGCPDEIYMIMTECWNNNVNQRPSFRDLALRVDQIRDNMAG

One may read the inhibition as the drop in the measured response relative to a control, in per cent. Low readings indicate a response near the control, high ones a response far below the control. `CN(C(=O)CN1CCOCC1)c1ccc2sc3c(-c4cccc5c(=O)cc(N6CC7CCC(C6)O7)oc45)cccc3c2c1` [NU5455]: the inhibition at 1 µM is 2.5%.
